Results reported in article PMC8222254, “Self-assembly of an anion receptor with metal-dependent kinase inhibition and potent in vitro anti-cancer properties” (Nature Communications, 2021).
Several values for one entry are separate records, joined by “and”; a condition that tells them apart may be missing. Equal entries are not always repeated.

What was measured:
[1] = target: 140 purified human kinases (Homo sapiens, UniProt P28482); assay: Kinase inhibition screen, cell-free 33P ATP assay at 10 μM; format: biochemical
Outline: (§1)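 Radiometric ^33P ATP cell-free format with purified enzymes; both complexes run at 10 μM in duplicate, results plotted on a kinome map via HGNC symbols.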

[2] = target: 140 purified human kinases (Homo sapiens, UniProt Q16539); assay: as above; format: biochemical; settings: p38a MAPK
Outline: as §1

[3] = target: T1, 140 purified human kinases (Homo sapiens, UniProt Q99683); assay: as above; format: biochemical
T1 sequence (Q99683 1-1374): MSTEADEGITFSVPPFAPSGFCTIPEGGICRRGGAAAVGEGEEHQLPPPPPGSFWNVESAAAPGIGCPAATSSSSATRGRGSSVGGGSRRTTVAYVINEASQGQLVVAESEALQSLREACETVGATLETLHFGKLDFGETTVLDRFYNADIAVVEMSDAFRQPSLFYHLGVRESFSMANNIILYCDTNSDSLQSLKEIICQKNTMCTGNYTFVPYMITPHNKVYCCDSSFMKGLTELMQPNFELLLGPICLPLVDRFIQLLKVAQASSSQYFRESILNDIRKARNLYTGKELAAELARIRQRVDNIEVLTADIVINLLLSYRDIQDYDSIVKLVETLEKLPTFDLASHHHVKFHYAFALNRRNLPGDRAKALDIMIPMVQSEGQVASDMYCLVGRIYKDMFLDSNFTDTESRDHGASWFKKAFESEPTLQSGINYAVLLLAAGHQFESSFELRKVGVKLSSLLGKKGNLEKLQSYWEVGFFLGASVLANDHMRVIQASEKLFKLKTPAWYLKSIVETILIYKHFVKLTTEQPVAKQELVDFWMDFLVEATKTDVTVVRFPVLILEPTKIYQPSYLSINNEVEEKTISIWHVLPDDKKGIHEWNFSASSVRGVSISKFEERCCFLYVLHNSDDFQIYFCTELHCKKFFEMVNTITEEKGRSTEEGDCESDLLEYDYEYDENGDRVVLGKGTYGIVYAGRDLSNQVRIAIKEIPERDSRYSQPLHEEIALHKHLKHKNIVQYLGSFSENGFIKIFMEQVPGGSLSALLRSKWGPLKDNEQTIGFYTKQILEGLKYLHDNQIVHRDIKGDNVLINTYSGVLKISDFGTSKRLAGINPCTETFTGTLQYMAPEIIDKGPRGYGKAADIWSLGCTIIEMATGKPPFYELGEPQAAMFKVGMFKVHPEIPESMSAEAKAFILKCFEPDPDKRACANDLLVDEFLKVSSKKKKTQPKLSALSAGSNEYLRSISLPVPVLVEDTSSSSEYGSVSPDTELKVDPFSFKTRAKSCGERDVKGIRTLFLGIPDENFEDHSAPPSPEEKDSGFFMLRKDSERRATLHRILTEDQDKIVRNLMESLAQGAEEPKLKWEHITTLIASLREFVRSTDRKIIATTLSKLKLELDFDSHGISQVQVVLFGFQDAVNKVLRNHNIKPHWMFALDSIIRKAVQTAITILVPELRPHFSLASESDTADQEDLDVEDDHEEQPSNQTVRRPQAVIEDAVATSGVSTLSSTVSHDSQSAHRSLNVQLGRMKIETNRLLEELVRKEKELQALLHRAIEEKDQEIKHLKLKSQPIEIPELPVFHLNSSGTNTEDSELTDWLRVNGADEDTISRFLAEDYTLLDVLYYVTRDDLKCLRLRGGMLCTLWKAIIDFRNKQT
Outline: as §1

HCT116 p53+/+ = assay: Confocal imaging of autophagic cells (CYTO-ID); format: cell-based, human; settings: 3.125 µM, 40 h
Procedure: Cells were seeded in Lumox chamber slides (8-well, Sarstedt) at a density of 1.25 × 10^4 cells/well (ARPE-19) or 5.625 × 10^4 cells/well (HCT116 p53^−/− and HCT116 p53^+/+). 24 h after seeding, cells were treated with 3.125 μM of [L2Cu3]^6+, [L2Zn3]^6+, [L2Mn3]^6+, or vehicle control for 40 h before removal and addition of CYTO-ID Green autophagic dye (1:500 dilution, Enzo Life Sciences) and Hoechst 3342 nuclear counter stain for 30 min at 37 °C. Media was then replaced before imaging using a Zeiss LSM880 confocal laser scanning microscope.

Sequence of 140 purified human kinases (Homo sapiens, UniProt Q16539) (Q16539 whole entry): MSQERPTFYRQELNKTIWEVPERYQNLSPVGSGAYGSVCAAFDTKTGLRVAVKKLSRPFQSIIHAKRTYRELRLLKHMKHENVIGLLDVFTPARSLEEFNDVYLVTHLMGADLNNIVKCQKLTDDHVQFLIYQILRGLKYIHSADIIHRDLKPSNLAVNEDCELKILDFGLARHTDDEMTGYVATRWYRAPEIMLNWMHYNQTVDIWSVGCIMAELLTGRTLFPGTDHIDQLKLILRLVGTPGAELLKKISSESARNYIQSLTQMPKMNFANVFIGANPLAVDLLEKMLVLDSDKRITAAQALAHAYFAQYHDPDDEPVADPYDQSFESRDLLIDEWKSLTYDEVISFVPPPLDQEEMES
Sequence of 140 purified human kinases (Homo sapiens, UniProt P28482) (P28482 whole entry): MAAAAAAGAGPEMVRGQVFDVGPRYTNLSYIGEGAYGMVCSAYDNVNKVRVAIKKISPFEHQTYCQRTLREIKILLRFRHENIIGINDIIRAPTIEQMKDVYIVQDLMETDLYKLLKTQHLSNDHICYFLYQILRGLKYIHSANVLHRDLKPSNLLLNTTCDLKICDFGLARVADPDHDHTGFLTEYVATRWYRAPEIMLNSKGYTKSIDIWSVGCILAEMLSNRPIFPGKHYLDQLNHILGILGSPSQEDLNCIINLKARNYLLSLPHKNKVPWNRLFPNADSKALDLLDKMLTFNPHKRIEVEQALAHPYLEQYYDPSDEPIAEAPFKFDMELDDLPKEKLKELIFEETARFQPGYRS

SMILES: [Cu+2].[Cu+2].[Cu+2].c1ccc(-c2csc(NCCN(CCNc3nc(-c4ccccn4)cs3)CCNc3nc(-c4ccccn4)cs3)n2)nc1.c1ccc(-c2csc(NCCN(CCNc3nc(-c4ccccn4)cs3)CCNc3nc(-c4ccccn4)cs3)n2)nc1 [[L2Cu3]6+]
- % Inhibition Run 1 ([1]; ERK2): 12.1%
- % Inhibition Run 2 ([1]; ERK2): 8.4%
- % Inhibition, Mean ([1]; ERK2): 10%
- mean % activity ([1]; ERK2): 90%
- % activity ([1]; ERK2, Run 1): 87.9%
- % activity ([1]; ERK2, Run 2): 91.6%
- % Inhibition Run 1 [2]: 12.7%
- % Inhibition Run 2 [2]: -5.2%
- % Inhibition, Mean [2]: 3.75%
- mean % activity [2]: 96%
- % activity ([2]; Run 1): 87.3%
- % activity ([2]; Run 2): 105.2%
- % Inhibition Run 1 ([3]; ASK1): 16.4%
- % Inhibition Run 2 ([3]; ASK1): 15.5%
- % Inhibition, Mean ([3]; ASK1): 16%
- mean % activity ([3]; ASK1): 84%
- % activity ([3]; ASK1, Run 1): 83.6%
- % activity ([3]; ASK1, Run 2): 84.5%

SMILES: [Mn+2].[Mn+2].[Mn+2].c1ccc(-c2csc(NCCN(CCNc3nc(-c4ccccn4)cs3)CCNc3nc(-c4ccccn4)cs3)n2)nc1.c1ccc(-c2csc(NCCN(CCNc3nc(-c4ccccn4)cs3)CCNc3nc(-c4ccccn4)cs3)n2)nc1 [[L2Mn3]6+]
- induction of autophagy (CYTO-ID) (HCT116 p53+/+): evident

SMILES: CC(=O)[O-].CC(=O)[O-].CC(=O)[O-].CC(=O)[O-].CC(=O)[O-].CC(=O)[O-].[Zn+2].[Zn+2].[Zn+2].c1ccc(-c2csc(NCCN(CCNc3nc(-c4ccccn4)cs3)CCNc3nc(-c4ccccn4)cs3)n2)nc1.c1ccc(-c2csc(NCCN(CCNc3nc(-c4ccccn4)cs3)CCNc3nc(-c4ccccn4)cs3)n2)nc1 [[L2Zn3]6+]
- % Inhibition, Mean ([1]; ERK2): 18%
- % Inhibition, Run 1 / Run 2 ([1]; ERK2): 19% and 18%
- mean % activity ([1]; ERK2): 82%
- % activity ([1]; ERK2, duplicate runs): 81% and 82%
- % Inhibition, Mean [2]: 16%
- mean % activity [2]: 84%
- % activity ([2]; duplicate runs): 72% and 95%
- % Inhibition, Mean ([3]; ASK1): 27%
- % Inhibition, Run 1 / Run 2 ([3]; ASK1): 31% and 24%
- mean % activity ([3]; ASK1): 73%
- % activity ([3]; ASK1, duplicate runs): 70% and 76%
- induction of autophagy (CYTO-ID) (HCT116 p53+/+): barely detectable
